Data: ChEMBL document CHEMBL5260810, “Inhibition of bromodomain-containing protein 9 for the prevention of epigenetically-defined drug resistance” (Bioorg Med Chem Lett, 2017)

How the values were obtained:
NB69 = test: Cytotoxicity against human NB69 cells measured after 8 days; type: functional, cell-based; settings: NB69, 192 h
[1] = Cytotoxicity against human HEC-151 cells measured after 8 days; type: functional, cell-based; settings: HEC-151, 192 h
[2] = Cytotoxicity against human HCC89 cells measured after 8 days; type: functional, cell-based; settings: HCC89, 192 h
SK-MEL-1 = test: Cytotoxicity against human SK-MEL-1 cells measured after 8 days; type: functional, cell-based; settings: SK-MEL-1, 192 h
NCI-H446 = test: Cytotoxicity against human NCI-H446 cells measured after 8 days; type: functional, cell-based; settings: NCI-H446, 192 h
MC-IXC = test: Cytotoxicity against human MC-IXC cells measured after 8 days; type: functional, cell-based; settings: 192 h
LN-18 = test: Cytotoxicity against human LN-18 cells measured after 8 days; type: functional, cell-based; settings: LN-18, 192 h
HPAF-II = test: Cytotoxicity against human HPAF-II cells measured after 8 days; type: functional, cell-based; settings: 192 h
CAKI-1 = test: Cytotoxicity against human CAKI-1 cells measured after 8 days; type: functional, cell-based; settings: CAKI-1, 192 h
LXFL 529 = test: Cytotoxicity against human LXFL 529 cells measured after 8 days; type: functional, cell-based; settings: LXFL 529, 192 h
[3] = Cytotoxicity against human NCE-G 141 cells measured after 8 days; type: functional, cell-based; settings: NCE-G 141, 192 h
SNU-387 = test: Cytotoxicity against human SNU-387 cells measured after 8 days; type: functional, cell-based; settings: SNU-387, 192 h
[4] = Cytotoxicity against human KMRC-20 cells measured after 8 days; type: functional, cell-based; settings: KMRC-20, 192 h
T98G = test: Cytotoxicity against human T98G cells measured after 8 days; type: functional, cell-based; settings: 192 h
SU-DHL-8 = test: Cytotoxicity against human SU-DHL-8 cells measured after 8 days; type: functional, cell-based; settings: SU-DHL-8, 192 h
SUP-B15 = test: Cytotoxicity against human SUP-B15 cells measured after 8 days; type: functional, cell-based; settings: SUP-B15, 192 h
RS4-11 = test: Cytotoxicity against human RS4-11 cells measured after 8 days; type: functional, cell-based; settings: RS4-11, 192 h
[5] = Cytotoxicity against human UKE-1 cells measured after 8 days; type: functional, cell-based; settings: UKE1, 192 h
[6] = Cytotoxicity against human PaTu 8988s cells measured after 8 days; type: functional, cell-based; settings: 192 h
YAPC = test: Cytotoxicity against human YAPC cells measured after 8 days; type: functional, cell-based; settings: 192 h
[7] = Cytotoxicity against human NCI-H2461 cells measured after 8 days; type: functional, cell-based; settings: NCI-H2461, 192 h
DOV13 = test: Cytotoxicity against human DOV13 cells measured after 8 days; type: functional, cell-based; settings: DOV13, 192 h
SK-N-BE(2)-M17 = test: Cytotoxicity against human SK-N-BE(2)-M17 cells measured after 8 days; type: functional, cell-based; settings: SK-N-BE(2)-M17, 192 h
SNU-182 = test: Cytotoxicity against human SNU-182 cells measured after 8 days; type: functional, cell-based; settings: SNU-182, 192 h
769-P = test: Cytotoxicity against human 769-P cells measured after 8 days; type: functional, cell-based; settings: 192 h
[8] = Cytotoxicity against mouse ID8 cells measured after 8 days; type: functional, cell-based; settings: ID8, 192 h
PaTu 8988t = test: Cytotoxicity against human PaTu 8988t cells measured after 8 days; type: functional, cell-based; settings: 192 h
MHH-ES-1 = test: Cytotoxicity against human MHH-ES-1 cells measured after 8 days; type: functional, cell-based; settings: MHH-ES-1, 192 h
[9] = Cytotoxicity against human QGP-1 cells measured after 8 days; type: functional, cell-based; settings: QGP-1, 192 h
A20 = test: Cytotoxicity against mouse A20 cells measured after 8 days; type: functional, cell-based; settings: A20, 192 h
KYSE-410 = test: Cytotoxicity against human KYSE-410 cells measured after 8 days; type: functional, cell-based; settings: KYSE-410, 192 h
[10] = Cytotoxicity against human SNU-668 cells measured after 8 days; type: functional, cell-based; settings: SNU668, 192 h
[11] = Cytotoxicity against human COV362.4 cells measured after 8 days; type: functional, cell-based; settings: COV362.4, 192 h
[12] = Cytotoxicity against human IGR-39 cells measured after 8 days; type: functional, cell-based; settings: IGR-39, 192 h
[13] = Cytotoxicity against human NCE-G 112 cells measured after 8 days; type: functional, cell-based; settings: NCE-G 112, 192 h
[14] = Cytotoxicity against human KHM-1B cells measured after 8 days; type: functional, cell-based; settings: 192 h
[15] = Cytotoxicity against human OVSAHO cells measured after 8 days; type: functional, cell-based; settings: 192 h
KG-1 = test: Cytotoxicity against human KG-1 cells measured after 8 days; type: functional, cell-based; settings: KG-1, 192 h
C3A = test: Cytotoxicity against human C3A cells measured after 8 days; type: functional, cell-based; settings: 192 h
COLO-680N = test: Cytotoxicity against human COLO-680N cells measured after 8 days; type: functional, cell-based; settings: 192 h
EMT6 = test: Cytotoxicity against mouse EMT6 Luciferase cells measured after 8 days; type: functional, cell-based; settings: EMT6, 192 h
[16] = molecular target: TGF-beta receptor type-1 (Homo sapiens) (UniProt P36897); test: Inhibition of TGFBR1 (unknown origin) at 1 uM relative to control
Sequence of TGF-beta receptor type-1 (Homo sapiens) (P36897 whole entry): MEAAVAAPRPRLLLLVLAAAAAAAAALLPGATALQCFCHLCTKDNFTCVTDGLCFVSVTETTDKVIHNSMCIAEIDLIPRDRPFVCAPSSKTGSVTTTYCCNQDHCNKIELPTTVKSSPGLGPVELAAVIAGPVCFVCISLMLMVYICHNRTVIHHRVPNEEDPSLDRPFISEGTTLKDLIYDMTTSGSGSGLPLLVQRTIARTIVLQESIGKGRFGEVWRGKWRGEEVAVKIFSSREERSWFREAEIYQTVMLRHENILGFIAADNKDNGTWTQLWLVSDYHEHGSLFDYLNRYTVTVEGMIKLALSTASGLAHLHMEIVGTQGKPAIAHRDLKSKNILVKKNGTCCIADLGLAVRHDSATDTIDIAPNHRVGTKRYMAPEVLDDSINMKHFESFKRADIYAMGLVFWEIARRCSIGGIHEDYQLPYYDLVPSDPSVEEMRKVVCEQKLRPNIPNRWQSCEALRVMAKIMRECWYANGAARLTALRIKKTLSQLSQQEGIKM

KYSE-70 cell line = test: Cytotoxicity against human KYSE-70 cell line measured after 8 days; type: functional, cell-based; settings: KYSE-70, 192 h
BT-20 = test: Cytotoxicity against human BT-20 cells measured after 8 days; type: functional, cell-based; settings: BT-20, 192 h
A-431 = test: Cytotoxicity against human A-431 cells measured after 8 days; type: functional, cell-based; settings: A-431, 192 h
HN = test: Cytotoxicity against human HN cells measured after 8 days; type: functional, cell-based; settings: 192 h
NOMO-1 = test: Cytotoxicity against human NOMO-1 cells measured after 8 days; type: functional, cell-based; settings: NOMO-1, 192 h
HCT-8 = test: Cytotoxicity against human HCT-8 cells measured after 8 days; type: functional, cell-based; settings: HCT-8, 192 h
NB1 = test: Cytotoxicity against human NB1 cells measured after 8 days; type: functional, cell-based; settings: NB1, 192 h
Malme-3M = test: Cytotoxicity against human Malme-3M cells measured after 8 days; type: functional, cell-based; settings: 192 h
[17] = Cytotoxicity against human COLO 853 cells measured after 8 days; type: functional, cell-based; settings: COLO 853, 192 h
[18] = Cytotoxicity against mouse LA-4 cells measured after 8 days; type: functional, cell-based; settings: LA-4, 192 h
MCF-10A = test: Cytotoxicity against human MCF-10A AKT2-/- cells measured after 8 days; type: functional, cell-based; settings: 192 h
DOHH-2 = test: Cytotoxicity against human DOHH-2 cells measured after 8 days; type: functional, cell-based; settings: DOHH-2, 192 h
CGTH-W-1 = test: Cytotoxicity against human CGTH-W-1 cells measured after 8 days; type: functional, cell-based; settings: CGTH-W-1, 192 h
[19] = Cytotoxicity against human TYK-nu.CP-r cells measured after 8 days; type: functional, cell-based; settings: 192 h
[20] = Cytotoxicity against human NCE-G 118 cells measured after 8 days; type: functional, cell-based; settings: NCE-G 118, 192 h
RL95-2 = test: Cytotoxicity against human RL95-2 cells measured after 8 days; type: functional, cell-based; settings: RL95-2, 192 h
[21] = Cytotoxicity against mouse FOX-NY cells measured after 8 days; type: functional, cell-based; settings: 192 h
MC-38 = test: Cytotoxicity against mouse MC-38 cells measured after 8 days; type: functional, cell-based; settings: MC-38, 192 h
RPMI-7951 = test: Cytotoxicity against human RPMI-7951 cells measured after 8 days; type: functional, cell-based; settings: RPMI-7951, 192 h

## C/C=C/Cn1cc(-c2ccc(C(C)(C)O)cc2OC)c2cc[nH]c2c1=O
NB69
  IC50: 20 µM
[1]
  IC50: 20 µM
[2]
  IC50: 20 µM
SK-MEL-1
  IC50: 20 µM
NCI-H446
  IC50: 20 µM
MC-IXC
  IC50: 20 µM
LN-18
  IC50: 13.7 µM
HPAF-II
  IC50: 20 µM
CAKI-1
  IC50: 20 µM
LXFL 529
  IC50: 20 µM
[3]
  IC50: 20 µM
SNU-387
  IC50: 20 µM
[4]
  IC50: 20 µM
T98G
  IC50: 20 µM
SU-DHL-8
  IC50: 3.26 µM
SUP-B15
  IC50: 20 µM
RS4-11
  IC50: 15.4 µM
[5]
  IC50: 20 µM
[6]
  IC50: 20 µM
YAPC
  IC50: 20 µM
[7]
  IC50: 20 µM
DOV13
  IC50: 20 µM
SK-N-BE(2)-M17
  IC50: 20 µM
SNU-182
  IC50: 20 µM
769-P
  IC50: 20 µM
[8]
  IC50: 20 µM
PaTu 8988t
  IC50: 20 µM
MHH-ES-1
  IC50: 20 µM
[9]
  IC50: 20 µM
A20
  IC50: 3.43 µM
KYSE-410
  IC50: 20 µM
[10]
  IC50: 20 µM
[11]
  IC50: 20 µM
[12]
  IC50: 20 µM
[13]
  IC50: 20 µM
[14]
  IC50: 20 µM
[15]
  IC50: 20 µM
KG-1
  IC50: 20 µM
C3A
  IC50: 20 µM
COLO-680N
  IC50: 20 µM
EMT6
  IC50: 20 µM
[16]
  inhibition: 0%
KYSE-70 cell line
  IC50: 20 µM
BT-20
  IC50: 20 µM
A-431
  IC50: 20 µM
HN
  IC50: 20 µM
NOMO-1
  IC50: 20 µM
HCT-8
  IC50: 20 µM
NB1
  IC50: 10.2 µM
Malme-3M
  IC50: 20 µM
[17]
  IC50: 20 µM
[18]
  IC50: 20 µM
MCF-10A
  IC50: 14.2 µM
DOHH-2
  IC50: 10.7 µM
CGTH-W-1
  IC50: 20 µM
[19]
  IC50: 20 µM
[20]
  IC50: 20 µM
RL95-2
  IC50: 20 µM
[21]
  IC50: 20 µM
MC-38
  IC50: 20 µM
RPMI-7951
  IC50: 20 µM

## C/C=C/Cn1cc(-c2ccc(C(=O)N3CCOCC3)cc2)c2cc[nH]c2c1=O
NB69
  IC50: 20 µM
[1]
  IC50: 20 µM
[2]
  IC50: 20 µM
SK-MEL-1
  IC50: 20 µM
NCI-H446
  IC50: 20 µM
MC-IXC
  IC50: 20 µM
LN-18
  IC50: 20 µM
HPAF-II
  IC50: 20 µM
CAKI-1
  IC50: 20 µM
LXFL 529
  IC50: 20 µM
[3]
  IC50: 20 µM
SNU-387
  IC50: 20 µM
[4]
  IC50: 20 µM
T98G
  IC50: 20 µM
SU-DHL-8
  IC50: 12.8 µM
SUP-B15
  IC50: 20 µM
[5]
  IC50: 12.4 µM
[6]
  IC50: 20 µM
YAPC
  IC50: 20 µM
[7]
  IC50: 20 µM
DOV13
  IC50: 20 µM
SK-N-BE(2)-M17
  IC50: 20 µM
SNU-182
  IC50: 20 µM
769-P
  IC50: 20 µM
[8]
  IC50: 20 µM
PaTu 8988t
  IC50: 20 µM
MHH-ES-1
  IC50: 20 µM
[9]
  IC50: 20 µM
A20
  IC50: 7 µM
KYSE-410
  IC50: 20 µM
[10]
  IC50: 20 µM
[11]
  IC50: 20 µM
[12]
  IC50: 20 µM
[13]
  IC50: 20 µM
[14]
  IC50: 20 µM
[15]
  IC50: 20 µM
KG-1
  IC50: 20 µM
C3A
  IC50: 20 µM
COLO-680N
  IC50: 20 µM
EMT6
  IC50: 20 µM
KYSE-70 cell line
  IC50: 20 µM
BT-20
  IC50: 20 µM
A-431
  IC50: 20 µM
HN
  IC50: 20 µM
NOMO-1
  IC50: 20 µM
HCT-8
  IC50: 20 µM
NB1
  IC50: 20 µM
Malme-3M
  IC50: 20 µM
[17]
  IC50: 20 µM
[18]
  IC50: 12 µM
MCF-10A
  IC50: 14.2 µM
DOHH-2
  IC50: 16.1 µM
CGTH-W-1
  IC50: 20 µM
[19]
  IC50: 20 µM
[20]
  IC50: 20 µM
RL95-2
  IC50: 20 µM
[21]
  IC50: 11.9 µM
MC-38
  IC50: 20 µM
RPMI-7951
  IC50: 20 µM

## C/C=C/Cn1cc(-c2cc(OC)c(C(=O)N3CCOCC3)cc2OC)c2cc(C)[nH]c2c1=O
RS4-11
  IC50: 2 µM
[16]
  inhibition: -1.5%
